A short description of assay [1]: Binding affinity to wild type HIV1 protease at pH 5.0 and 20 degC by ITC method. More on the design: species or system Human immunodeficiency virus 1.
The target in assay [2] is T1, Human immunodeficiency virus type 1 protease (Human immunodeficiency virus 1, UniProt Q72874, I47V/V32I/V82I). Nature of the assay: Binding affinity to HIV1 protease V32I/I47V/V82I triple mutant at pH 4.0 and 28 degC by ITC method. Background: In ITC the heat of successive injections is recorded.
T1 sequence (Q72874 entry or part of it I47V/V32I/V82I): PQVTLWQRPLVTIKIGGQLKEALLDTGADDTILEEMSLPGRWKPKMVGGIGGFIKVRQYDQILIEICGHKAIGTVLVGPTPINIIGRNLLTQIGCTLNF
For assay [3], the target named is T1, Human immunodeficiency virus type 1 protease. As to the kind of experiment: Binding affinity to HIV1 protease V32I/I47V/V82I triple mutant at pH 5.8 and 28 degC by ITC method.
Assay [4] deals with Human immunodeficiency virus 1. Nature of the assay: Binding affinity to wild type HIV1 protease assessed as -TdeltaS level at pH 5.0 and 20 degC by ITC method.
Assay [5] has as its system Human immunodeficiency virus 1.
Description: Binding affinity to wild type HIV1 protease assessed as deltaH level at pH 5.0 and 20 degC by ITC method
The test system of assay [6] is Human immunodeficiency virus 1. This is another data set of the same source.
Description: Binding affinity to wild type HIV1 protease assessed as deltaS level at pH 5.0 and 20 degC by ITC method
Assay [7] relates to Human immunodeficiency virus 1. The source holds these as a separate data set.
Description: Binding affinity to wild type HIV1 protease assessed as deltaG level at pH 5.0 and 20 degC by ITC method
For assay [8], the system named is Human immunodeficiency virus type 1 protease (Human immunodeficiency virus 1), Q72874 [V32I,I47V,V82I].
Human immunodeficiency virus type 1 protease (Human immunodeficiency virus 1), Q72874 [V32I,I47V,V82I], sequence (Q72874 entry or part of it V32I/I47V/V82I): as the sequence (Q72874 entry or part of it I47V/V32I/V82I) above
Assay [9] has the same test system. This is another data set of the same source.
Assay [10] shares this test system. This is another data set of the same source.
The test system is the same in assay [11]. This is another data set of the same source.
Assay [12] has the same test system. The source holds these as a separate data set.
Assay [13] shares this test system. This is another data set of the same source.
Assay [14] shares this test system. The source holds these as a separate data set.
Assay [15] shares this test system. This is another data set of the same source.

One may read the Ki as a measure of affinity in units of concentration, obtained from inhibition or displacement. Low values mean tighter binding, high ones weaker binding.

Structures are written as SMILES.

`CC(C)CN(C[C@@H](O)[C@H](Cc1ccccc1)NC(=O)O[C@H]1CCOC1)S(=O)(=O)c1ccc(N)cc1` [AMPRENAVIR]: the Ki in assay [1] is 0.39 nM; in assay [2], 10 nM; in assay [3], 35 nM. Also, the -TdeltaS was -5.3 kcal/mol in assay [4], -4.2 kcal/mol in assay [10] and -4.3 kcal/mol in [14]. In addition, the figures for the deltaH in assay [5], in [8] and in assay [12] were -7.3 kcal/mol, -6.8 kcal/mol and -6 kcal/mol, respectively. Also, the values for the deltaS in assay [6], in assay [9] and in assay [13] were 18.1 cal/mol.K, 14 cal/mol.K and 14.3 cal/mol.K, respectively. The deltaG in assay [7] was -12.6 kcal/mol; in [11] it was -11 kcal/mol; in assay [15], -10.2 kcal/mol.
